In patent US11506670B2, “Method of genome-wide direct identification of electrophile-sensing targets” (Cornell University, priority 2018, dated 2022):

Tested on: HaloTag-fused proteins of interest (POI)
Test: T-REX targeting efficiency by Click coupling, in-gel fluorescence
Format: cell-based
Conditions: equation of Step 40A (ix)
Method: (i) For mammalian cells, add 15 μL freshly prepared lysis buffer (50 mM Hepes pH 7.6, 0.3 mM TCEP and 1% Nonidet p-40) to mammalian cell pellets from Step 2A above and subject to 3 cycles of freeze-thaw. For E. coli cells, resuspend cell pellet in 100 μL lysis buffer consisting of 50 mM HEPES pH 7.6, 2 mM TCEP, 1% Nonidet p-40, 150 μg/mL Lysozyme, 5 μg/mL DNAse-I. Incubate for 20 min at room temperature with agitation. For mammalian cells make sure the cells are resuspended well in lysis buffer.
(iv) Dilute a portion of the clarified lysate to 1 mg/mL in a final volume of ˜25 μL containing 50 mM Hepes pH 7.6, 0.3 mM TCEP, and 0.2 mg/mL His6-TEV-S219V. Incubate at 37° C. for 45 min. The optimal concentration of lysate protein is ˜1.0 mg/mL. High concentration of lysate protein causes failure of Click coupling. Precipitates may appear upon adding His6-TEV-S219V. […]
(vii) Upon completion of the gel-electrophoresis, rinse the gel with ddH2O 20 mL (×2, 5 min) and analyze for Cy5 signal using a ChemiDoc-MP imaging system (Bio-Rad) (see Equipment Setup). Any alternative fluorescence gel imager platforms can be used in this step. […]
(x) Bio-Rad Image Lab™ software is used to quantitate the intensities of Cy5 signal and western blot signal. […] Click on “Analysis table” to generate the quantitated signal intensities corresponding to selected bands. […]

With `CCCCCC(O)/C=C/C=O` (stereo not shown) [HNE, 4-hydroxynonenal] the targeting efficiency was 10-40%.
